Assay results from ChEMBL document CHEMBL4732043, “The discovery of novel indazole derivatives as tubulin colchicine site binding agents that displayed potent antitumor activity both in vitro and in vivo” (Eur J Med Chem, 2020).

How the values were obtained:
Type in all cases: functional
HepG2 = test: Antiproliferative activity against human HepG2 cells assessed as cell viability after 72 hrs by MTT assay
A549 = test: Antiproliferative activity against human A549 cells assessed as cell viability after 72 hrs by MTT assay
HCT-116 = test: Antiproliferative activity against human HCT-116 cells assessed as cell viability after 72 hrs by MTT assay

Compound | GI50 (HepG2) [µM] | GI50 (A549) [µM] | GI50 (HCT-116) [µM]
COc1ccc2c(Nc3ccc4c(c3)OCO4)n[nH]c2c1 | > 25 | > 25 | > 25
Cc1ccc2c(Nc3ccc4c(c3)OCO4)n[nH]c2c1 | > 25 | > 25 | 23.7
COc1ccc(Nc2n[nH]c3cc(F)ccc23)cc1OC | > 25 | > 25 | 16.7
COc1cc(Nc2n[nH]c3cc(OC)ccc23)cc(OC)c1 | 0.78 | 0.51 | 0.96
COc1ccc(Nc2n[nH]c3cc(C)ccc23)cc1OC | 0.63 | 0.99 | 2.26
COc1cc(Nc2n[nH]c3ccccc23)cc(OC)c1OC | 24.1 | 19.4 | 18.9
COc1cc(Nc2n[nH]c3c(C)cccc23)cc(OC)c1OC | 5.4 | 4.3 | 4.6
COc1ccc(Nc2n[nH]c3cc(F)ccc23)cc1 | > 25 | > 25 | > 25
COc1ccc(Nc2n[nH]c3ccc(C)cc23)cc1OC | > 25 | > 25 | 22.3
COc1cc(Nc2n[nH]c3ccc(C)cc23)cc(OC)c1 | > 25 | > 25 | > 25
COc1cc(Nc2n[nH]c3cc(F)ccc23)cc(OC)c1OC | 16 | 21.3 | 5.3
COc1cc(Nc2n[nH]c3ccc(C)cc23)cc(OC)c1OC | 4 | 1.1 | 2.6
